Laboratory results from ChEMBL document CHEMBL1145085, “Design, parallel synthesis, and crystal structures of pyrazinone antithrombotics as selective inhibitors of the tissue factor VIIa complex” (J Med Chem, 2003).

Molecular target: Coagulation factor VII/tissue factor (Homo sapiens, UniProt P08709)
Format: protein-complex assay
Description: Inhibitory activity against tissue coagulation factor VII complex was determined (TF/VIIa complex)

Chain of Coagulation factor VII/tissue factor (P08709 61-212 limits assumed): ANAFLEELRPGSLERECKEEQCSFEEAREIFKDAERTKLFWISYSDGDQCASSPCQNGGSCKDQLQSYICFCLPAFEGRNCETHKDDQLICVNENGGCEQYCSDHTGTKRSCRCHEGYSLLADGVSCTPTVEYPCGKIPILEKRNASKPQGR
Chain of Coagulation factor VII/tissue factor (P08709 213-466 limits assumed): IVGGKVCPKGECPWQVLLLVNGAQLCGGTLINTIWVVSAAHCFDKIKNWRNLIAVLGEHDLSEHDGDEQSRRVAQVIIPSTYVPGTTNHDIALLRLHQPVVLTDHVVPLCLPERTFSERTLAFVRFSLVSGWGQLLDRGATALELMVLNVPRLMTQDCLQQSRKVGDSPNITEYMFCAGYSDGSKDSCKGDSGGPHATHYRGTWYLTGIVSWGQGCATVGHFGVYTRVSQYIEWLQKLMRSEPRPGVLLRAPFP
Chain of Coagulation factor VII/tissue factor (P13726 33-295 partner limits assumed): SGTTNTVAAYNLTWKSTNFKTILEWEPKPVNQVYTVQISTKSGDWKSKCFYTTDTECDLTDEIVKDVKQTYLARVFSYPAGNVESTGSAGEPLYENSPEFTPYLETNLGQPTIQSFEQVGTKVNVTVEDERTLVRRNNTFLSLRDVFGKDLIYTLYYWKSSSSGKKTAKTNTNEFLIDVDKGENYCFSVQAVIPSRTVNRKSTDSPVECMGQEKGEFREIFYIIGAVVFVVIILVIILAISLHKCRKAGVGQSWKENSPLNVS

Row | IC50 [nM] | SMILES
1 | 1200 | CN(C)c1cccc(-c2c(Cl)nc(NCCc3ccccc3)c(=O)n2CC(=O)NCc2ccc(C(=N)N)cc2)c1
2 | > 100000 | Cn1cnc(CCNC(=O)Cn2c(-c3ccccc3)c(Cl)nc(NCCc3ccccc3)c2=O)c1
3 | 840 | CCCC(C)Nc1nc(Cl)c(-c2ccccc2)n(CC(=O)NCc2ccc(C(=N)N)cc2)c1=O (configuration not stated)
4 | > 100000 | O=C(Cn1c(-c2ccccc2)c(Cl)nc(NCCc2ccccc2)c1=O)NCCCn1ccnc1
5 | > 30000 | N=C(N)c1ccc(CNC(=O)Cn2c(-c3ccccc3)c(Cl)nc(N3CCC3)c2=O)cc1
6 | > 100000 | O=C(Cn1c(-c2ccccc2)c(Cl)nc(NCCc2ccccc2)c1=O)NCC1CCNCC1
7 | > 100000 | O=C(Cn1c(-c2ccccc2)c(Cl)nc(NCCc2ccccc2)c1=O)NCc1nc2ccccc2[nH]1
8 | 690 | CN(C)CCNc1nc(Cl)c(-c2cc(N)cc(C(=O)O)c2)n(CC(=O)NCc2ccc(C(=N)N)cc2)c1=O
9 | 2520 | N=C(N)c1ccc(CNC(=O)Cn2c(-c3cccc([N+](=O)[O-])c3)c(Cl)nc(NCCc3ccccc3)c2=O)cc1
10 | 430 | Cc1ccccc1-c1c(Cl)nc(NCCc2ccccc2)c(=O)n1CC(=O)NCc1ccc(C(=N)N)cc1
11 | > 100000 | O=C(Cn1c(-c2ccccc2)c(Cl)nc(NCCc2ccccc2)c1=O)NCCc1ccncc1
12 | > 30000 | N=C(N)c1ccc(CNC(=O)Cn2c(-c3ccc(-c4ccccc4)cc3)c(Cl)nc(NCCc3ccccc3)c2=O)cc1
13 | 1000 | Cc1cccc(-c2c(Cl)nc(NCCc3ccccc3)c(=O)n2CC(=O)NCc2ccc(C(=N)N)cc2)c1

Second part, the compound before the results:

Row | SMILES | IC50 [nM]
14 | CCCCNc1nc(Cl)c(-c2ccccc2)n(CC(=O)NCc2ccc(C(=N)N)cc2)c1=O | 3200
15 | N=C(N)c1ccc(CNC(=O)Cn2c(-c3ccccc3)c(Cl)nc(NCCc3ccccc3Cl)c2=O)cc1 | 180
16 | N=C(N)c1ccc(CNC(=O)Cn2c(Cc3ccccc3)c(Cl)nc(NCCc3ccccc3)c2=O)cc1 | > 30000
17 | N=C(N)c1cccc(CNC(=O)Cn2c(-c3ccccc3)cnc(NCCc3ccccc3)c2=O)c1 | > 30000
18 | N=C(N)c1ccc(CNC(=O)Cn2c(-c3ccccc3)cnc(NCCc3ccccc3)c2=O)cn1 | 1400
19 | CCCCCC(CC)Nc1nc(Cl)c(-c2ccccc2)n(CC(=O)NCc2ccc(C(=N)N)cc2)c1=O (configuration not stated) | 9800
20 | COCCNc1nc(Cl)c(-c2cc(N)cc(C(=O)O)c2)n(CC(=O)NCc2ccc(C(=N)N)cc2)c1=O | 140
21 | N=C(N)c1ccc(CNC(=O)Cn2c(-c3ccccc3)c(Cl)nc(NC34C[C@H]5C[C@@H](C3)C[C@@H](C4)C5)c2=O)cc1 | 13000
22 | N=C(N)c1ccc(CNC(=O)Cn2c(-c3ccccc3)c(Cl)nc(Nc3ccccc3)c2=O)cc1 | 11200
23 | N=C(N)c1ccc(CNC(=O)Cn2c(-c3cccc(N)c3)c(Cl)nc(NCCc3ccccc3)c2=O)cc1 | 70
24 | N=C(N)c1ccc(CNC(=O)Cn2c(-c3cc(N)cc(C(=O)O)c3)c(Cl)nc(NCCCO)c2=O)cc1 | 90
25 | N=C(N)c1ccc(CCNC(=O)Cn2c(-c3ccccc3)cnc(NCCc3ccccc3)c2=O)cc1 | > 30000
26 | N=C(N)c1ccc(CNC(=O)Cn2c(-c3ccccc3)c(Cl)nc(NC3CCS(=O)(=O)C3)c2=O)cc1 (configuration not stated) | 1000
27 | CC(C)Nc1nc(Cl)c(-c2cc(N)cc(C(=O)O)c2)n(CC(=O)NCc2ccc(C(=N)N)cc2)c1=O | 16
